Holding throughout (format): in vivo
In test [1] the test system is Echinochloa crus-galli (ECHCG). The experiment in a line: Example A post-emergence herbicidal glasshouse test. Conditions: 312 h, evaluated after 13 days, 100=total damage to plant, 0=no damage. The essentials: (§1)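 One day (pre) or eight days (post) after sowing, pots received a spray of test compound formulated in acetone/water 50:50 with 0.5% Tween 20; plants were then kept under controlled glasshouse conditions with watering twice daily and assessed for damage (0–100) at 13 days.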

Test [2] has as its system Setaria faberi (SETFA). Described as above. Conditions: 312 h, evaluated after 13 days, 100=total damage to plant, 0=no damage. The essentials:
as §1

The test system of test [3] is Amaranthus retroflexus (AMARE). Described as above. Conditions: 312 h, evaluated after 13 days, 100=total damage to plant, 0=no damage. The essentials:
as §1

The test system of test [4] is Solanum nigrum (SOLNI). The description is as above. Conditions: 250 g/ha, evaluated after 13 days, 100=total damage to plant, 0=no damage. Summed up: as §1
Test [5] concerns Avena fatua (AVEFA). The description is as above. The settings on record: 312 h, evaluated after 13 days, 100=total damage to plant, 0=no damage. Summed up:
as §1

Test [6] relates to Alopecurus myosuroides (ALOMY). Described as above. The settings on record: 312 h, evaluated after 13 days, 100=total damage to plant, 0=no damage. Summed up:
as §1

Test [7] concerns Echinochloa crus-galli (ECHCG). Description: Example A pre-emergence herbicidal glasshouse test. The settings on record: 312 h, Rate 250 g/ha, evaluated after 13 days, 100=total damage to plant, 0=no damage to plant. Summed up: as §1
The subject of test [8] is Setaria faberi (SETFA). The experiment in a line: Example A pre-emergence herbicidal glasshouse test. Conditions: 312 h, Rate 250 g/ha, evaluated after 13 days, 100=total damage to plant, 0=no damage to plant. Summed up: as §1
For test [9], the system named is Amaranthus retroflexus (AMARE). Description: Example A pre-emergence herbicidal glasshouse test. Conditions: 312 h, Rate 250 g/ha, evaluated after 13 days, 100=total damage to plant, 0=no damage to plant. Summed up: as §1
In test [10] the test system is Solanum nigrum (SOLNI). Description: Example A pre-emergence herbicidal glasshouse test. Conditions: Rate 250 g/ha, evaluated after 13 days, 100=total damage to plant, 0=no damage to plant. Summed up:
as §1

Test [11] deals with Avena fatua (AVEFA). The experiment in a line: Example A pre-emergence herbicidal glasshouse test. Conditions: 312 h, Rate 250 g/ha, evaluated after 13 days, 100=total damage to plant, 0=no damage to plant. Summed up:
as §1

The test system of test [12] is Alopecurus myosuroides (ALOMY). The experiment in a line: Example A pre-emergence herbicidal glasshouse test. Conditions: 312 h, Rate 250 g/ha, evaluated after 13 days, 100=total damage to plant, 0=no damage to plant. The essentials: as §1
Test [13] deals with Echinochloa crus-galli (ECHCG). Description: Example B post-emergence herbicidal greenhouse test. The settings on record: 360 h, evaluated after 15 days, 100=total damage to plant, 0=no damage. Summed up:
(§2)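 Seeds are sown in soil-filled pots and sprayed either 1 day later (pre-emergence) or after 10 days of growth (post-emergence) with the active ingredient in an aqueous formulation containing an emulsifier, solvents and a surfactant. Injury is scored after 20 further days (pre) or 15 further days (post).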

Test [14] concerns Digitaria sanguinalis (DIGSA). Described as above. The settings on record: 360 h, evaluated after 15 days, 100=total damage to plant, 0=no damage. The essentials: as §2
For test [15], the system named is Setaria faberi (SETFA). The description is as above. The settings on record: 360 h, evaluated after 15 days, 100=total damage to plant, 0=no damage. Summed up:
as §2

Test [16] has as its system Lolium perenne (LOLPE). The test is described as above. Conditions: 360 h, evaluated after 15 days, 100=total damage to plant, 0=no damage. Summed up: as §2
For test [17], the system named is Avena fatua (AVEFA). Described as above. The settings on record: 360 h, evaluated after 15 days, 100=total damage to plant, 0=no damage. Summed up: as §2
In test [18] the test system is Alopecurus myosuroides (ALOMY). Described as above. Conditions: 360 h, evaluated after 15 days, 100=total damage to plant, 0=no damage. Summed up:
as §2

The subject of test [19] is Echinochloa crus-galli (ECHCG). The experiment in a line: Example B pre-emergence herbicidal greenhouse test. Conditions: 480 h, evaluated after 20 days, 100=total damage to plant, 0=no damage. Summed up:
as §2

For test [20], the system named is Digitaria sanguinalis (DIGSA). The experiment in a line: Example B pre-emergence herbicidal greenhouse test. The settings on record: 480 h, evaluated after 20 days, 100=total damage to plant, 0=no damage. Summed up: as §2
Test [21] has as its system Setaria faberi (SETFA). Description: Example B pre-emergence herbicidal greenhouse test. Conditions: 480 h, evaluated after 20 days, 100=total damage to plant, 0=no damage. The essentials: as §2
Test [22] has as its system Lolium perenne (LOLPE). Description: Example B pre-emergence herbicidal greenhouse test. Conditions: 480 h, evaluated after 20 days, 100=total damage to plant, 0=no damage. Summed up: as §2
The subject of test [23] is Avena fatua (AVEFA). Description: Example B pre-emergence herbicidal greenhouse test. The settings on record: 480 h, evaluated after 20 days, 100=total damage to plant, 0=no damage. Summed up:
as §2

Test [24] relates to Alopecurus myosuroides (ALOMY). The experiment in a line: Example B pre-emergence herbicidal greenhouse test. Conditions: 480 h, evaluated after 20 days, 100=total damage to plant, 0=no damage. Summed up: as §2

This note sets out measurements from patent US8828908B2, “Herbicidally active bicyclic 1,3-dione compounds” (Syngenta Limited, priority 2007, dated 2014).

In general, pest or weed control refers to how far the test organism was held down. Low readings indicate a weak effect, high ones a strong effect.

SMILES strings stand for the structures.

Take `Cc1ccc(-c2cccc(F)c2)cc1C1=C(O)[C@H]2CC[C@H](C2)C1=O` (single isomer, unassigned) [Compound T13]: the pest or weed control at 250 g/ha came to 10% in test [1]; 0% with Setaria faberi (SETFA) [2]; 0% in [3]; 0% in the test on Avena fatua (AVEFA) [5]; 0% in [6]; 0% in [7]. The pest or weed control at 250 g/ha (in the test with Setaria faberi (SETFA) [8]; in [9]; in the test with Avena fatua (AVEFA) [11]; in test [12]) was 0% in each case. Besides, the “SOLNI damage to plant” value in the test on Solanum nigrum (SOLNI) [4] and with Solanum nigrum (SOLNI) [10] was 0 each time.

Take `CCc1ccc(-c2ccc(C)c(C3=C(O)[C@H]4CC[C@H](C4)C3=O)c2)cc1` (single isomer, unassigned) [Compound T14]: the pest or weed control at 250 g/ha was 30% in test [1]; 70% in the test with Setaria faberi (SETFA) [2]; 0% in test [3]; 0% in the test on Avena fatua (AVEFA) [5]; 0% in [6]; 0% in [7]. The pest or weed control at 250 g/ha (in the test on Setaria faberi (SETFA) [8]; in test [9]; in the test with Avena fatua (AVEFA) [11]; in test [12]) was 0% throughout. Moreover, the “SOLNI damage to plant” value in the test on Solanum nigrum (SOLNI) [4] and in the test on Solanum nigrum (SOLNI) [10] was 0 in each case.

For the compound `Cc1cc(C)c(-c2ccc(C)c(C3=C(O)[C@H]4CC[C@H](C4)C3=O)c2)c(C)c1` (single isomer, unassigned) [Compound T15], the pest or weed control at 250 g/ha (in the test on Setaria faberi (SETFA) [2]; in test [3]; in the test with Setaria faberi (SETFA) [8]; in test [9]; in the test on Avena fatua (AVEFA) [11]; in test [12]) was 0% each time. In addition, the “SOLNI damage to plant” value in the test with Solanum nigrum (SOLNI) [4] is reported as 0.

For `Cc1ccc(-c2ccccc2F)cc1C1=C(O)[C@H]2CC[C@H](C2)C1=O` (single isomer, unassigned) [Compound T16], the pest or weed control at 250 g/ha (in test [1]; in the test with Setaria faberi (SETFA) [2]; in test [3]; with Avena fatua (AVEFA) [5]; in test [6]; in [7]) was 0% each time. In addition, the pest or weed control at 250 g/ha (with Setaria faberi (SETFA) [8]; in test [9]; with Avena fatua (AVEFA) [11]; in [12]) was 0% throughout. The “SOLNI damage to plant” value in the test on Solanum nigrum (SOLNI) [4] and in the test on Solanum nigrum (SOLNI) [10] was 0 each time.

Consider `CCc1cc(-c2ccc(Cl)cc2)ccc1C1=C(O)[C@H]2CC[C@H](C2)C1=O` [Compound T59, 3-(4′-chloro-3-ethylbiphen-4-yl)bicyclo[3.2.1]octane-2,4-dione], for which the pest or weed control at 125 g/ha in test [13] is 100%; in [14] it was 100%; in the test on Setaria faberi (SETFA) [15] it was 100%; in the test with Lolium perenne (LOLPE) [16], 80%; in the test with Avena fatua (AVEFA) [17], 30%; in [18], 90%. For the same compound, the pest or weed control at 250 g/ha worked out at 100% in test [1]; 100% in the test on Setaria faberi (SETFA) [2]; 30% in test [3]; 90% with Avena fatua (AVEFA) [5]; 100% in test [6]; 100% in test [7]. The pest or weed control at 250 g/ha in the test with Setaria faberi (SETFA) [8] was found to be 100%; in test [9], 0%; in the test on Avena fatua (AVEFA) [11], 70%; in test [12], 70%; in [19] it was 100%; in test [20], 90%. The pest or weed control at 250 g/ha was 100% with Setaria faberi (SETFA) [21], 80% in the test on Lolium perenne (LOLPE) [22], 70% with Avena fatua (AVEFA) [23] and 80% in test [24].

On to `Cc1cc(-c2ccc(Cl)cc2)ccc1C1=C(O)[C@H]2CC[C@H](C2)C1=O` [Compound T61, 3-(4′-chloro-3-methylbiphen-4-yl)bicyclo[3.2.1]octane-2,4-dione], for which the pest or weed control at 125 g/ha worked out at 80% in test [13]; 100% in test [14]; 90% with Setaria faberi (SETFA) [15]; 30% in the test on Lolium perenne (LOLPE) [16]; 30% in the test on Avena fatua (AVEFA) [17]; 60% in test [18]. Also, the pest or weed control at 250 g/ha worked out at 100% in test [1]; 100% with Setaria faberi (SETFA) [2]; 20% in test [3]; 60% with Avena fatua (AVEFA) [5]; 100% in test [6]; 80% in test [7]. The pest or weed control at 250 g/ha was 90% with Setaria faberi (SETFA) [8]; 0% in test [9]; 30% with Avena fatua (AVEFA) [11]; 40% in test [12]; 90% in test [19]; 100% in test [20]. In addition, the pest or weed control at 250 g/ha in the test with Setaria faberi (SETFA) [21] came out at 100%; in the test on Lolium perenne (LOLPE) [22], 90%; in the test with Avena fatua (AVEFA) [23], 40%; in [24], 100%.

Turning to `CCc1cc(-c2ccc(Cl)cc2)cc(CC)c1C1=C(O)[C@H]2CC[C@H](C2)C1=O` [Compound T62, 3-(4′-chloro-3,5-diethylbiphen-4-yl)bicyclo[3.2.1]octane-2,4-dione], the pest or weed control at 125 g/ha was 100% in test [13]; 100% in test [14]; 100% with Setaria faberi (SETFA) [15]; 50% in the test with Lolium perenne (LOLPE) [16]; 60% in the test on Avena fatua (AVEFA) [17]; 60% in [18]. Moreover, the pest or weed control at 250 g/ha in [1] worked out at 100%; in the test with Setaria faberi (SETFA) [2], 100%; in test [3], 0%; in the test on Avena fatua (AVEFA) [5] it was 90%; in test [6], 100%; in test [7], 100%. The pest or weed control at 250 g/ha with Setaria faberi (SETFA) [8] came out at 100%; in [9] it was 20%; with Avena fatua (AVEFA) [11], 80%; in test [12], 80%; in test [19], 100%; in test [20], 100%. For the same compound, the pest or weed control at 250 g/ha in the test on Setaria faberi (SETFA) [21] is 100%; with Lolium perenne (LOLPE) [22], 100%; in the test with Avena fatua (AVEFA) [23], 50%; in test [24] it was 100%.

As to `CCc1cc(-c2ccc(C)cc2)cc(CC)c1C1=C(O)[C@H]2CC[C@H](C2)C1=O` [Compound T63], the pest or weed control at 125 g/ha turned out to be 50% in [13]; 60% in test [14]; 50% in the test with Setaria faberi (SETFA) [15]; 10% in the test on Lolium perenne (LOLPE) [16]; 20% with Avena fatua (AVEFA) [17]; 0% in test [18]. Further, the pest or weed control at 250 g/ha was 100% in test [1]; 100% with Setaria faberi (SETFA) [2]; 0% in [3]; 50% in the test on Avena fatua (AVEFA) [5]; 70% in test [6]; 90% in test [7]. Besides, the pest or weed control at 250 g/ha in the test on Setaria faberi (SETFA) [8] was found to be 100%; in test [9], 0%; with Avena fatua (AVEFA) [11], 30%; in [12] it was 50%; in test [19], 60%; in test [20], 90%. For the same compound, the pest or weed control at 250 g/ha was 70% in the test on Setaria faberi (SETFA) [21], 100% in the test on Lolium perenne (LOLPE) [22], 20% with Avena fatua (AVEFA) [23] and 80% in test [24].
